Among the data in ChEMBL document CHEMBL2021911 (Bioorg Med Chem Lett, 2012) are EC50 and Activity values, retold here.

Assay [1] deals with T1, Muscarinic acetylcholine receptor M1 (Homo sapiens, UniProt P11229).
T1 sequence (P11229 whole entry): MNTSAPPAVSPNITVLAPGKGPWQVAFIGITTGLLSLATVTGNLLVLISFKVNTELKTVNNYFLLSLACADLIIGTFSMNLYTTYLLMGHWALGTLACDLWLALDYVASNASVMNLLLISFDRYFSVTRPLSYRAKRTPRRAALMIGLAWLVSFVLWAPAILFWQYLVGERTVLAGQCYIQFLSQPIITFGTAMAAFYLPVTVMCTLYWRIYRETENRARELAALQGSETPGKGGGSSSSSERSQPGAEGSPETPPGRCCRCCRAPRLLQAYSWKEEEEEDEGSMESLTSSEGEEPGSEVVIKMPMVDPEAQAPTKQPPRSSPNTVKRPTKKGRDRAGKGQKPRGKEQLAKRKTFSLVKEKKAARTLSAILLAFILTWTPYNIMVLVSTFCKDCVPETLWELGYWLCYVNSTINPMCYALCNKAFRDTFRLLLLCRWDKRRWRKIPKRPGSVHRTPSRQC
The assay is described as follows: Agonist activity at human muscarinic M1 receptor. Format: functional.

Assay [2] has as its target T2, Muscarinic acetylcholine receptor M1 (Homo sapiens) (UniProt P11229).
T2 sequence (whole entry): T1 sequence (P11229 whole entry)
The assay is described as follows: Agonist activity at human muscarinic M1 receptor at 30 uM relative to acetylcholine. Format: functional.

As for `CCS(=O)(=O)N1[C@@H]2CC[C@H]1C[C@H](NCCNC(=O)c1ccccc1)C2`, the EC50 result in assay [1] was “Not Active”. For the compound `O=C(NCCN[C@@H]1C[C@H]2CC[C@@H](C1)N2C(=O)OCc1ccccc1)c1ccccc1`, the EC50 in assay [1] (read-out: EC50) is more than 10 µM. In addition, the Activity in assay [2] worked out at 7%. As for `CCOC(=O)N1[C@@H]2CC[C@H]1C[C@H](NCCNC(=O)N1CCCCC1)C2`, the EC50 in assay [1] (read-out: EC50) was found to be 0.57 µM. For the same compound, the Activity in assay [2] came out at 53%. `CCOC(=O)N1[C@@H]2CC[C@H]1C[C@H](NCCNC(=O)c1ccc(F)c(F)c1)C2`: the 50% effective concentration (EC50) in assay [1] (read-out: EC50) is 0.81 µM. In assay [2], this compound showed an Activity of 50%. On to `CN(C)C(=O)N1[C@@H]2CC[C@H]1C[C@H](NCCNC(=O)c1ccccc1)C2`, for which, in assay [1], the EC50 entry is “Not Active”. In the case of `COC(=O)N1[C@@H]2CC[C@H]1C[C@H](NCCNC(=O)c1ccccc1)C2`, the EC50 in assay [1] (read-out: EC50) was more than 10 µM. Moreover, in assay [2], the Activity was 21%. For the compound `CCOC(=O)N1[C@@H]2CC[C@H]1C[C@H](NCCNC(=O)c1cc(F)cc(F)c1)C2`, the EC50 in assay [1] (read-out: EC50) turned out to be 1.9 µM. For the same compound, the Activity in assay [2] turned out to be 43%.

`O=C(NCCN[C@@H]1C[C@H]2CC[C@@H](C1)N2C(=O)Oc1ccccc1)c1ccccc1`: the half-maximal effective concentration (EC50) result in assay [1] is “Not Active”.

`CCOC(=O)N1C[C@H]2CC[C@@H](C1)[C@H]2NCCNC(=O)C1CCCCC1`: the EC50 in assay [1] (read-out: EC50) stood at 1 µM. The Activity in assay [2] worked out at 37%. For `CCOC(=O)N1C[C@H]2CC[C@@H](C1)[C@H]2NCCNC(=O)N1CCCCC1` the same measures were 0.69 µM and 9%. As to `CCOC(=O)N1C2CCC1CC(N1CC[C@H](NC(=O)c3ccccc3)C1)C2` (mixture of isomers), in assay [1] (read-out: EC50), the EC50 was determined as 1.2 µM. Further, in assay [2], the Activity stood at 39%. As for `COC(=O)C12CCC(NCCNC(=O)c3ccccc3)(CC1)CC2`, the EC50 in assay [1] (read-out: EC50) was determined as 6.2 µM. In addition, the Activity in assay [2] was determined as 18%. As for `C=CCOC(=O)N1[C@@H]2CC[C@H]1C[C@H](NCCNC(=O)c1ccccc1)C2`, the EC50 in assay [1] (read-out: EC50) stood at 2 µM. The compound further gave an Activity in assay [2] of 40%. Take `CCOC(=O)N1[C@@H]2CC[C@H]1C[C@H](NCCNC(=O)C1CCCCC1)C2`: the EC50 in assay [1] (read-out: EC50) was 1.5 µM. Also, the Activity in assay [2] turned out to be 34%. For `CCOC(=O)N1[C@@H]2CC[C@H]1C[C@H](NCCNC(=O)N1CCCC1)C2` the same measures were more than 10 µM and 11%.

For the compound `CCOC(=O)N1[C@@H]2CC[C@H]1C[C@H](NCCNC(=O)c1ccccc1Cl)C2`, in assay [1] (read-out: EC50), the concentration for a half-maximal effect (EC50) stood at 2.3 µM. Moreover, the Activity in assay [2] is 37%. `CCOC(=O)N1CC[C@H]2[C@H](CCCN2CCNC(=O)c2ccccc2)C1` (relative stereo): the EC50 in assay [1] (read-out: EC50) was 1.2 µM. The Activity in assay [2] was determined as 13%. In the case of `CCC(=O)N1[C@@H]2CC[C@H]1C[C@H](NCCNC(=O)c1ccccc1)C2`, the EC50 entry in assay [1] is recorded as “Not Active”. With `CCOC(=O)N1C[C@H]2CC[C@@H](C1)[C@H]2NCCNC(=O)c1cccc(OC)c1`, the EC50 in assay [1] (read-out: EC50) came out at 0.24 µM. For the same compound, the Activity in assay [2] was found to be 47%.

For the compound `CCOC(=O)N1C[C@H]2CC[C@@H](C1)[C@H]2NCCNC(=O)c1cc(F)cc(F)c1`, the EC50 in assay [1] (read-out: EC50) was found to be 0.2 µM. This compound returned an Activity in assay [2] of 53%. In the same order, the values of `CCOC(=O)N1[C@@H]2CC[C@H]1C[C@H](NCCNC(=O)c1cccc(Cl)c1)C2` are 0.44 µM and 63%. For `CC(C)C(=O)N1[C@@H]2CC[C@H]1C[C@H](NCCNC(=O)c1ccccc1)C2` the same measures were 5.4 µM and 23%. Take `CCOC(=O)N1C2CCC1CC(N1CC(NC(=O)c3ccccc3)C1)C2` (mixture of isomers): the EC50 in assay [1] (read-out: EC50) came to 2.2 µM. In addition, in assay [2], the Activity came to 34%. For `CS(=O)(=O)N1[C@@H]2CC[C@H]1C[C@H](NCCNC(=O)c1ccccc1)C2`, the EC50 entry in assay [1] was “Not Active”. Consider `CCOC(=O)N1CC[C@H]2[C@@H](CCCN2CCNC(=O)c2ccccc2)C1` (relative stereo), for which the EC50 in assay [1] (read-out: EC50) came to 3.2 µM. The compound also returned an Activity in assay [2] of 13%. In the case of `CCOC(=O)N1[C@@H]2CC[C@H]1C[C@H](NCCNC(=O)c1ccccc1C(F)(F)F)C2`, in assay [1], the 50% effective concentration (EC50) entry was “Not Active”. For the compound `CCOC(=O)N1C2CCC1CC(N1CCC[C@H](NC(=O)c3ccccc3)C1)C2` (mixture of isomers), in assay [1] (read-out: EC50), the EC50 was more than 10 µM. The Activity in assay [2] was determined as 12%.

Turning to `CCCC(=O)N1[C@@H]2CC[C@H]1C[C@H](NCCNC(=O)c1ccccc1)C2`, in assay [1], the EC50 entry is “Not Active”. As for `CCOC(=O)N1CCC(N2CCC[C@@H](NC(=O)c3ccccc3C)C2)CC1`, the EC50 in assay [1] (read-out: EC50) came to 0.89 µM. The compound also yielded an Activity in assay [2] of 71%. With `CCOC(=O)N1C[C@H]2CC[C@@H](C1)[C@H]2NCCNC(=O)c1cccs1`, the EC50 in assay [1] (read-out: EC50) was 0.17 µM. In assay [2], this compound gave an Activity of 54%.

For the compound `CCOC(=O)N1C[C@H]2CC[C@@H](C1)[C@H]2NCCNC(=O)N1CCOCC1`, the EC50 in assay [1] (read-out: EC50) was more than 10 µM. In assay [2], this compound returned an Activity of 11%. Regarding `CCOC(=O)N1[C@@H]2CC[C@H]1C[C@H](NCCNC(=O)c1ccccc1C)C2`, in assay [1] (read-out: EC50), the concentration for a half-maximal effect (EC50) was 1.1 µM. Further, the Activity in assay [2] was 47%. In the same order, the values of `CCOC(=O)N1C2CCC1CC(N1CC[C@@H](NC(=O)c3ccccc3)C1)C2` (mixture of isomers) are 0.32 µM and 62%. For the compound `CCOC(=O)N1[C@@H]2CC[C@H]1C[C@H](NCCNC(=O)c1ccc[nH]1)C2`, the EC50 entry in assay [1] is on record as “Not Active”. On to `CCOC(=O)N1[C@@H]2CC[C@H]1C[C@H](NCCNC(=O)N1CCOCC1)C2`, for which, in assay [1] (read-out: EC50), the EC50 was found to be 2 µM. The compound also registered an Activity in assay [2] of 44%. On to `CCOC(=O)N1[C@@H]2CC[C@H]1C[C@H](NCCNC(=O)NC1CC1)C2`, for which the 50% effective concentration (EC50) entry in assay [1] is “Not Active”. For the compound `CCOC(=O)N1[C@@H]2CC[C@H]1C[C@H](NCCNC(=O)N1[C@H](C)CCC[C@@H]1C)C2`, the EC50 in assay [1] (read-out: EC50) is 2.5 µM. Moreover, the Activity in assay [2] came out at 39%. In the case of `CCOC(=O)N1C2CCC1CC(N1CC[C@@H](NC(=O)c3ccccc3C)C1)C2` (mixture of isomers), the EC50 in assay [1] (read-out: EC50) was 1.2 µM. In assay [2], this compound had an Activity of 55%. In the case of `CCOC(=O)N1[C@@H]2CC[C@H]1C[C@H](NCCNS(=O)(=O)c1cccc(OC)c1)C2`, the EC50 result in assay [1] is “Not Active”. Take `CCOC(=O)N1[C@@H]2CC[C@H]1C[C@H](NCCNC(=O)c1ccc(F)cc1)C2`: the EC50 in assay [1] (read-out: EC50) came out at 0.83 µM. Besides, in assay [2], the Activity is 54%. For `CCOC(=O)N1C[C@@H]2C(NCCNC(=O)c3ccccc3C)[C@@H]2C1` (stereo partly specified), the EC50 in assay [1] (read-out: EC50) is 4.1 µM. The compound further showed an Activity in assay [2] of 60%. In the case of `CCOC(=O)N1[C@@H]2CC[C@H]1C[C@H](NCCNC(=O)c1cccs1)C2`, the EC50 in assay [1] (read-out: EC50) came out at 1 µM. The same compound showed an Activity in assay [2] of 33%. In the same order, the values of `CCOC(=O)N1[C@@H]2CC[C@H]1CC(NCCNC(=O)c1ccc(C)c(F)c1)C2` (mixture of isomers) are 0.47 µM and 40%. In the same order, the values of `CCOC(=O)N1C2CCC1CC(N1CC[C@H](NC(=O)c3ccccc3C)C1)C2` (mixture of isomers) are more than 10 µM and 22%. In the same order, the values of `CCOC(=O)N1C[C@H]2CC[C@@H](C1)[C@H]2NCCNC(=O)c1ccccc1C` are 0.17 µM and 51%.

As to `CCOC(=O)N1[C@@H]2CC[C@H]1C[C@H](NCCNC(=O)c1ccncc1)C2`, in assay [1] (read-out: EC50), the EC50 is more than 10 µM. Besides, in assay [2], the Activity is 6%.

In the case of `CCOC(=O)N1[C@@H]2CC[C@H]1C[C@H](NCCNC(=O)c1cccc(OC)c1)C2`, the EC50 in assay [1] (read-out: EC50) worked out at 3.6 µM. The compound further had an Activity in assay [2] of 33%. For `CCOC(=O)N1C2CCC1CC(N1CCC[C@H](NC(=O)c3ccccc3C)C1)C2` (mixture of isomers) the same measures were 2.1 µM and 52%.

One may read the EC50 as the midpoint of the concentration-response curve.
